Molecules are shown by their SMILES.

The first assay deals with Sommerweizen. Put plainly: Field test of gametocidal activity (sterilisation of anthers), spring wheat. The assay is classed as in vivo. The settings on record: Sorte Charkowskaja 9; V. Periode der Organogenese; 1%ige Emulsion; 8 kg/ha.
Text: Die gametozide Aktivitat der erfindungsgemäßen Sterilisationsmittel war im Feldversuch in verschiedenen bodenklimatischen Zonen mit Teilstücken von 10 m^2 Größe in drei- bis viermaliger Wiederholung festgestellt. Jedes Sterilisationsmittel wurde mindenstens 5 Jahre lang geprüft.
Die Entwicklung der Perioden der Organogenese wird zytologisch überwacht. Die Behandlung von Pflanzen mit dem Sterilisationsmittel erfolgt am Anfang der fünften Periode der Organogenese nach Kupermann.
Mit dem Ährenschieben verwirklicht man die Isolierung von Hauptähren und anderen Stockwerken in Pergamentbeuteln. Bei Weizen und Tritikale werden Einzelisolatoren benutzt. Bei Roggen schließt man je Ähre 5 bis 7 verschiedene nebeneinander befindliche Pflanzen unter einen gemeinsamen Isolator ein. Bei Hierse wird jede Rispe getrennt isoliert. Der Sterilitätsprozentsatz (X) für Weizen, Roggen, Tritikale und Hirse wird nach der Formel [formula] ermittelt.
Die Kornzahl in nicht isolierten Ähren von Kontrollpflanzen wird bedingt für 100 % Ansetzen bei freier Bestäubung angenommen.
Um zuverlässige Angaben zu erhalten, verwendet man 20 bis 25 Isolatoren jeder Wiederholung für Weizen und Tritikale, 10 .bis 15 Isolatoren jeder Wiederholung für Roggen und Hirse.
Pflanzen des Sommerweizens Sorte Moskowskaja 35 werden in der V. Periode der Organogenese (nach Kupermann) mit 1%iger wäßriger Emulsion von δ, δ' -Thiodivaleriansäure, Natriumsalz der δ, δ' -Thiodivaleriansäure, δ, δ'--Sulfonyldivaleriansäure, Natriumsalz der d, δ' -Sulfonyldivaleriansäure, Kaliumsalz der δ, δ' -Sulfornyldivaleriansäure, Bis (die-n-butyläther) der δ, δ' -Thiodivaleriansäure, 4-Karboxybutyldezylsulfid, Bis(2-äthylhexyläther) der δ, δ' -Thiodivaleriansäure behandelt. Die Emulsion enthält 0,1 Masse% Kalziumalkylbenzolsulfonat mit 12 bis 14 Kohlenstoffatomen und 0,01 Masse% Dimethylsulfoxid. Der Verbrauch an Präparat beträgt 6 kg/ha. Als Kontrolle dienen Pflanzen, behandelt mit einem Verdünner ohne Sterilisationsmittel. Die Prüfergebnisse sind in der Tabelle 4 angegeben. […] Periode der Organogenese erhalten.
(§1) Pflanzen des Sommerweizens Sorte Rodina werden in der V. Periode der Organogenese (nach Kupermann) mit l%iger wäßriger Emulsion von δ, δ' -Sulfornyldivaleriansäure, 4-Karboxybutyldezylsulfid, Bis(2-äthylhexyläther) der δ, δ' -Thiodivaleriansäure behandelt. Die Emulsion enthält 0,1 Masse% Kalziumalkylbenzolsulfonat mit 12 bis 14 Kohlenstoffatomen und 0,01 Masse% Tetrahydrofuran. Der Verbrauch an Präparat beträgt 6 kg/ha. Als Kontrolle dienen Pflanzen, behandelt mit einem Verdünner ohne Sterilisationsmittel. Die Prüfergebnisse sind in der Tabelle 5 angegeben. […] Periode der Organogenese erhalten.
Pflanzen des Sommerwizens Sorte Charkowskaja 9 werden in der V. Periode der Organogenese (nach Kupermann.) mit 1%iger waßriger Emulsion von Bis(di-n-butyläther) der δ, δ' -Thiodivaleriansäure, Bis(2-äthylhexyläther) der δ, δ' -Thiodivaleriansäure behandelt. Die Emulsion enthält 0,1 Masse% Kalziumalkylbenzolsulfonat mit 12 bis 14 Kohlenstoffatomen und 0,01 Masse% Äthylenglykol. Der Verbrauch an Präparat beträgt 8 kg/ha. Als Kontrolle dienen Pflanzen, behandelt mit einem Verdünner ohne Sterilisationsmittel. Die Prüfergebnisse sind in der Tabelle 6 angegeben. […] Periode der Organogenese erhalten.
as §1, with “Botanitscheskaja 4” for “Rodina”, “1%iger” for “l%iger”, “von Natriumsatz der” for “von”, “--Thiodivaleriansäure, Bis(di-n-butyläther) der δ, δ' -Thiodiväleriansäure,” for “-Sulfornyldivaleriansäure,”, “Dodezylsulfat.” for “Tetrahydrofuran.”, “7” for “5”
Consider `CCCCC(CC)COC(=O)CCCCSCCCCC(=O)OCC(CC)CCCC` (centres unmarked) [Beispiel 27, Bis(2-äthylhexyläther) der δ, δ' -Thiodivaleriansäure], for which the “Anzahl von Körnern der Ähre bei freier Bestäubung” value is 28,6, the “Anzahl von Körnern der Ähre im Isolator” value is 0,0, the “Prozentsatz der Sterilität” value is reported as 100,0% and the “Prozentsatz des Ansetzens von Körnern bei freier Bestäubung” value is 88,9%.

The same assay, now with this note: Sorte Moskowskaja 35; V. Periode der Organogenese; 1%ige wäßrige Emulsion; 6 kg/ha.
Turning to `O=C(O)CCCCSCCCCC(=O)O` [Beispiel 15, δ, δ' -Thiodivaleriansäure], the “Anzahl von Körnern der Ähre bei freier Bestäubung” value is reported as 31,7, the “Anzahl von Körnern der Ähre im Isolator” value is given as 0,9, the “Prozentsatz der Sterilität” value is recorded as 97,0% and the “Prozentsatz des Ansetzens von Körnern bei freier Bestäubung” value is recorded as 98,3%.

Turning to `O=C([O-])CCCCSCCCCC(=O)[O-].[Na+].[Na+]` [Beispiel 16, Natriumsalz der δ, δ' -Thiodivaleriansäure], the “Anzahl von Körnern der Ähre bei freier Bestäubung” value is 30,8, the “Anzahl von Körnern der Ähre im Isolator” value is on record as 0,9, the “Prozentsatz der Sterilität” value is on record as 97,0% and the “Prozentsatz des Ansetzens von Körnern bei freier Bestäubung” value was 96,5%.

On to `O=C(O)CCCCS(=O)(=O)CCCCC(=O)O` [Beispiel 17, δ, δ'--Sulfonyldivaleriansäure], for which the “Anzahl von Körnern der Ähre bei freier Bestäubung” value is listed as 26,7, the “Anzahl von Körnern der Ähre im Isolator” value is listed as 0,0, the “Prozentsatz der Sterilität” value is 100,0% and the “Prozentsatz des Ansetzens von Körnern bei freier Bestäubung” value was 83,6%.

In the case of `O=C([O-])CCCCS(=O)(=O)CCCCC(=O)[O-].[Na+].[Na+]` [Beispiel 18, Natriumsalz der d, δ' -Sulfonyldivaleriansäure], the “Anzahl von Körnern der Ähre bei freier Bestäubung” value was 31,1, the “Anzahl von Körnern der Ähre im Isolator” value is listed as 0,3, the “Prozentsatz der Sterilität” value was 99,0% and the “Prozentsatz des Ansetzens von Körnern bei freier Bestäubung” value is given as 97,4%.

In the case of `O=C([O-])CCCCS(=O)(=O)CCCCC(=O)[O-].[K+].[K+]` [Beispiel 19, Kaliumsalz der δ, δ' -Sulfornyldivaleriansäure], the “Anzahl von Körnern der Ähre bei freier Bestäubung” value is listed as 30,5, the “Anzahl von Körnern der Ähre im Isolator” value is given as 0,3, the “Prozentsatz der Sterilität” value is 99,0% and the “Prozentsatz des Ansetzens von Körnern bei freier Bestäubung” value is 95,6%.

With `CCCCCCCCCCSCCCCC(=O)O` [Beispiel 21, 4-Karboxybutyldezylsulfid], the “Anzahl von Körnern der Ähre bei freier Bestäubung” value is reported as 26,9, the “Anzahl von Körnern der Ähre im Isolator” value is on record as 0,0, the “Prozentsatz der Sterilität” value is given as 100,0% and the “Prozentsatz des Ansetzens von Körnern bei freier Bestäubung” value was 84,3%.

In the case of `CCCCC(CC)COC(=O)CCCCSCCCCC(=O)OCC(CC)CCCC` (centres unmarked) [Beispiel 22, Bis(2-äthylhexyläther) der δ, δ' -Thiodivaleriansäure], the “Anzahl von Körnern der Ähre bei freier Bestäubung” value is on record as 25,7, the “Anzahl von Körnern der Ähre im Isolator” value is listed as 0,0, the “Prozentsatz der Sterilität” value is 100,0% and the “Prozentsatz des Ansetzens von Körnern bei freier Bestäubung” value was 80,6%.

Still in this assay, the particulars now being: Sorte Rodina; V. Periode der Organogenese; 1%ige wäßrige Emulsion; 6 kg/ha.
Take `O=C(O)CCCCS(=O)(=O)CCCCC(=O)O` [Beispiel 23, δ, δ' -Sulfornyldivaleriansäure]: the “Anzahl von Körnern der Ähre bei freier Bestäubung” value is reported as 36,1, the “Anzahl von Körnern der Ähre im Isolator” value is 0,0, the “Prozentsatz der Sterilität” value is listed as 100,0% and the “Prozentsatz des Ansetzens von Körnern bei freier Bestaubung” value is recorded as 96,3%.

Take `CCCCCCCCCCSCCCCC(=O)O` [Beispiel 24, 4-Karboxybutyldezylsulfid]: the “Anzahl von Körnern der Ähre bei freier Bestäubung” value is on record as 29,8, the “Anzahl von Körnern der Ähre im Isolator” value is reported as 0,0, the “Prozentsatz der Sterilität” value was 100,0% and the “Prozentsatz des Ansetzens von Körnern bei freier Bestaubung” value is 79,5%.

Consider `CCCCC(CC)COC(=O)CCCCSCCCCC(=O)OCC(CC)CCCC` (centres unmarked) [Beispiel 25, Bis(2-äthylhexyläther) der δ, δ' -Thiodivaleriansäure], for which the “Anzahl von Körnern der Ähre bei freier Bestäubung” value is 31,2, the “Anzahl von Körnern der Ähre im Isolator” value is given as 0,0, the “Prozentsatz der Sterilität” value is on record as 100,0% and the “Prozentsatz des Ansetzens von Körnern bei freier Bestaubung” value was 83,2%.

The record behind these values is patent publication EP0362382A1, “METHOD OF STERILIZING PLANT POLLEN” (VSESOJUZNY NAUCHNO-ISSLEDOVATELSKY INST. SELSKOKHOZYAISTV. …, priority 1988, dated 1989).
